Measurements: article PMC4604124, “In Vitro Characterization of the Pharmacological Properties of the Anti-Cancer Chelator, Bp4eT, and Its Phase I Metabolites” (PLoS ONE, 2015)
Several values for one entry are separate records, joined by “and”; a condition that tells them apart may be missing. Identical values can stand only once. Like-named read-outs stand apart in the source and are kept apart here.

Columns and labels:
[1] = system: A549 human lung adenocarcinoma cells; test: MTT cytotoxicity assay, A549 cells; format: cell-based; details: for IC50: MTT
Experimental: (§1) For cytotoxicity experiments, cancer cells were seeded at a density of 5,000 (MCF-7), 10,000 (HL-60) or 2,000 cells/well (HCT116 and A549) in 96-well plates (TPP) for 24 h/37°C prior to the addition of examined agents. The non-cancerous cells, 3T3 and H9c2 cells, were cultured for 24 h/37°C in 96-well plates at a density of 10,000 cells/well, the medium was then changed to serum- and pyruvate-free DMEM (Sigma-Aldrich) and incubated with the cells for another 24 h/37°C. The cytotoxic effects of Bp4eT and its metabolites were studied at different concentrations after a 72 h/37°C incubation. In order to aid the dissolution of the lipophilic ligands, 0.1% dimethyl sulfoxide (v/v) (DMSO; Sigma-Aldrich) was present in the culture medium of all groups. At this concentration, DMSO had no effect on cellular proliferation or viability.
(§2) The viability of cells were determined using an MTT assay (Sigma-Aldrich) according to previously established methods. The optical density of soluble MTT was measured at λ = 570 nm, subtracting the λ = 690 nm background using a Tecan Infinite 200M plate reader (Tecan Group, Männedorf, Switzerland). The viability or proliferation of experimental groups was expressed as a percentage of the untreated controls (100%).
(§3) SigmaStat for Windows 3.5 (Systat Software, San Jose, CA, USA) statistical software package was utilized to analyze results. The data are expressed as the mean ± SD of a given number of experiments. Statistical significance was determined using a one-way ANOVA with a Bonferroni post-hoc test or Student’s t-test. The results were considered to be statistically significant when p < 0.05. The IC50 values were calculated using CalcuSyn 2.0 software (Biosoft, Cambridge, UK). Cell cycle analysis was evaluated using MultiCycle AV Software (Phoenix Flow Systems, San Diego, CA, USA).

H9c2 cardiomyoblasts = test: MTT cytotoxicity assay, H9c2 cells; format: cell-based, rat; details: for IC50: MTT
Experimental: as §1, §2, §3

[2] = system: labile iron pool of MCF-7 cells; test: Calcein-AM assay, access to the labile iron pool; format: cell-based, human; design: Calcein fluorescence: unit not given here; details: 10 μM; for Calcein fluorescence: mean (průměr)
Experimental: These experiments were performed according to Glickstein et al. with slight modifications. The MCF-7 cells were seeded in 96-well plates (10,000 cells/well) and allowed to adhere for 24 h/37°C. Cells were loaded with iron using the cellular iron donor, ferric ammonium citrate (530 μg/mL), 24 h prior to the experiment, and then washed. To prevent potential interference, especially with regard to various trace elements, the medium was replaced with ADS buffer (prepared using Millipore water supplemented with 116 mM NaCl, 5.3 mM KCl, 1 mM CaCl2, 1.2 mM MgSO4, 1.13 mM NaH2PO4, 5 mM D-glucose, and 20 mM HEPES, pH 7.4). Cells were then loaded with 2 μM of the cell-permeable calcein green acetoxymethyl ester (calcein-AM; Molecular Probes, Oregon, USA) for 30 min/37°C and washed. Cellular esterases cleave the acetoxymethyl groups to form the cell membrane-impermeable compound, calcein green. The fluorescence of calcein green is quenched upon binding iron. The intracellular fluorescence (λex = 488 nm; λem = 530 nm) of calcein green was then followed as a function of time (10 min after the addition of 10 μM Bp4eT or its metabolites) at 37°C using the Tecan Infinite 200M plate reader. The iron chelation efficacy of the metabolites in cells was expressed as a percentage of the efficacy of the parent chelator, Bp4eT (100%).

CCN=CNN=C(c1ccccc1)c1ccccn1 [Bp4eA, N ^3-ethyl-N ^1-[phenyl(pyridin-2-yl)methylene]formamidrazone]
MTT, relative to control (0 = 100) ([1]; A549, 2 000 b/j, 10 μM, single experiment (date), sheet Bp4eA): 86.1682 and 92.0865 and 96.0506 and 96.8227
MTT, relative to control (0 = 100) ([1]; A549, 2 000 b/j, 30 μM, průměr (mean), sheet Bp4eA): 91.20
MTT, relative to control (0 = 100) ([1]; A549, 2 000 b/j, 30 μM, single experiment (date), sheet Bp4eA): 88.1425 and 87.7957 and 97.6861 and 91.1602
MTT, relative to control (0 = 100) ([1]; A549, 2 000 b/j, 100 μM, průměr (mean), sheet Bp4eA): 77.56
MTT, relative to control (0 = 100) ([1]; A549, 2 000 b/j, 100 μM, single experiment (date), sheet Bp4eA): 74.9089 and 76.0742 and 86.7011 and 72.5654
MTT, relative to control (0 = 100) ([1]; A549, 2 000 b/j, 300 μM, průměr (mean), sheet Bp4eA): 45.10
MTT, relative to control (0 = 100) ([1]; A549, 2 000 b/j, 300 μM, single experiment (date), sheet Bp4eA): 48.1515 and 41.8857 and 54.342 and 36.0376
MTT, relative to control (0 = 100) ([1]; A549, 2 000 b/j, 1000 μM, průměr (mean), sheet Bp4eA): 7.31
MTT, relative to control (0 = 100) ([1]; A549, 2 000 b/j, 1000 μM, single experiment (date), sheet Bp4eA): 9.28 and 7.437 and 7.169 and 5.37
IC50 ([1]; A549, 2 000 b/j, single experiment (date), sheet Bp4eA): 183 µM and 273 µM and 169 µM
Therapeutic index, IC50 non-cancerous cells / IC50 neoplastic cells ([1]; H9c2/A549): 2.0
IC50 ([1]; Homo sapiens, A549, 72 h, A549, 72 h/37°C, mean ± SD, n ≥ 4): 207 ± 46.1 µM
IC50 ([1]; Homo sapiens, A549, A549, 2 000 b/j, průměr (mean), sheet Bp4eA): 207 µM
IC50 ([1]; Homo sapiens, A549, A549, 2 000 b/j, single experiment (date), sheet Bp4eA): 202 µM
MTT, relative to control (0 = 100) (H9c2 cardiomyoblasts; H9c2, 10 000 b/j, 1 μM, průměr (mean), sheet Bp4eA): 96.26
MTT, relative to control (0 = 100) (H9c2 cardiomyoblasts; H9c2, 10 000 b/j, 1 μM, single experiment (date), sheet Bp4eA): 96.9641 and 92.8493 and 97.4859 and 95.7195 and 98.2981
MTT, relative to control (0 = 100) (H9c2 cardiomyoblasts; H9c2, 10 000 b/j, 3 μM, průměr (mean), sheet Bp4eA): 96.27
MTT, relative to control (0 = 100) (H9c2 cardiomyoblasts; H9c2, 10 000 b/j, 3 μM, single experiment (date), sheet Bp4eA): 100.784 and 93.7843 and 97.6949 and 91.6948 and 97.3803
MTT, relative to control (0 = 100) (H9c2 cardiomyoblasts; H9c2, 10 000 b/j, 10 μM, průměr (mean), sheet Bp4eA): 95.56
MTT, relative to control (0 = 100) (H9c2 cardiomyoblasts; H9c2, 10 000 b/j, 10 μM, single experiment (date), sheet Bp4eA): 96.5102 and 92.1411 and 95.5166 and 98.0809
MTT, relative to control (0 = 100) (H9c2 cardiomyoblasts; H9c2, 10 000 b/j, 30 μM, průměr (mean), sheet Bp4eA): 93.18
MTT, relative to control (0 = 100) (H9c2 cardiomyoblasts; H9c2, 10 000 b/j, 30 μM, single experiment (date), sheet Bp4eA): 94.6024 and 93.1446 and 95.1622 and 88.8218 and 94.1801
MTT, relative to control (0 = 100) (H9c2 cardiomyoblasts; H9c2, 10 000 b/j, 100 μM, průměr (mean), sheet Bp4eA): 76.55
MTT, relative to control (0 = 100) (H9c2 cardiomyoblasts; H9c2, 10 000 b/j, 100 μM, single experiment (date), sheet Bp4eA): 76.7908 and 72.9908 and 82.9441 and 73.781 and 76.2525
MTT, relative to control (0 = 100) (H9c2 cardiomyoblasts; H9c2, 10 000 b/j, 300 μM, průměr (mean), sheet Bp4eA): 66.55
MTT, relative to control (0 = 100) (H9c2 cardiomyoblasts; H9c2, 10 000 b/j, 300 μM, single experiment (date), sheet Bp4eA): 71.4763 and 63.147 and 62.7404 and 68.8465
MTT, relative to control (0 = 100) (H9c2 cardiomyoblasts; H9c2, 10 000 b/j, 1000 μM, průměr (mean), sheet Bp4eA): 23.16
MTT, relative to control (0 = 100) (H9c2 cardiomyoblasts; H9c2, 10 000 b/j, 1000 μM, single experiment (date), sheet Bp4eA): 17.0741 and 23.4615 and 18.1134 and 33.9931
IC50 (H9c2 cardiomyoblasts; H9c2, 10 000 b/j, single experiment (date), sheet Bp4eA, read-out: IC50 měřené): 510 µM and 315 µM and 533 µM
IC50 (H9c2 cardiomyoblasts; Rattus norvegicus, H9c2, 72 h, H9c2, 72 h/37°C, mean ± SD, n ≥ 4, read-out: IC50): 416 ± 122 µM
IC50 (H9c2 cardiomyoblasts; Rattus norvegicus, H9c2, H9c2, 10 000 b/j, průměr (mean), sheet Bp4eA, read-out: IC50 měřené): 416 µM
IC50 (H9c2 cardiomyoblasts; Rattus norvegicus, H9c2, H9c2, 10 000 b/j, single experiment (date), sheet Bp4eA, read-out: IC50 měřené): 306 µM
Calcein fluorescence ([2]; 30 sec): 16.628
Calcein fluorescence ([2]; 60 sec): 5.072
Calcein fluorescence ([2]; 90 sec): 8.535
Calcein fluorescence ([2]; 120 sec): 16.564
Calcein fluorescence ([2]; 300 sec): 13.356
Calcein fluorescence ([2]; 600 sec): 12.951
Chelation efficacy: fluorescence of free calcein at t = 600 s as percentage of Bp4eT ([2]; MCF-7, mean of 6 experiments): 5.9% and 5.872%
